Reference: publication PMC10976393 (2024)

Columns and labels:
[1] = tested on: ATP Aptamer (DNA, aptamer) CCTGGGGGAGTATTGCGGAGGAAGG; test: ThT fluorescence light-up; conditions: 100 mM KCl; 50 mM Tris pH 7.5; 3- to 4-fold increase over non-G4 controls
[2] = tested on: Quadruplet G (DNA, aptamer) CCTGGGGGGGGGAGTATTGCGGGGAGGGGAAGG; test: ThT fluorescence light-up; conditions: 100 mM KCl; 50 mM Tris pH 7.5; 3- to 4-fold increase over non-G4 controls
[3] = tested on: Quadruplet G (DNA, aptamer) CCTGGGGGGGGGAGTATTGCGGGGAGGGGAAGG; test: HPLC-ESI-MS; conditions: 1 mM KCl, 100 mM TEAAc (annealed in 50 mM KCl)
[4] = tested on: Triplet G (DNA, aptamer) CCTGGGGGGGAGTATTGCGGGAGGGAAGG; test: HPLC-ESI-MS; conditions: 1 mM KCl, 100 mM TEAAc (annealed in 50 mM KCl)
[5] = tested on: Triplet G (DNA, aptamer) CCTGGGGGGGAGTATTGCGGGAGGGAAGG; test: ThT fluorescence light-up; conditions: 100 mM KCl; 50 mM Tris pH 7.5; 3- to 4-fold increase over non-G4 controls
[6] = tested on: ATP Aptamer (DNA, aptamer) CCTGGGGGAGTATTGCGGAGGAAGG; test: HPLC-ESI-MS; conditions: 1 mM KCl, 100 mM TEAAc (annealed in 50 mM KCl)
[7] = tested on: FAM-Quadruplet G (DNA, aptamer) TTCCTGGGGGGGGGAGTATTGCGGGGAGGGGAAGG; test: FAM fluorescence increase, single-site fit; conditions: 100 mM KCl; 50 mM Tris pH 7.5; slow annealing with ATP 0-10 μM; 0.50 μM aptamer
[8] = tested on: ATP Aptamer-FAM (DNA, aptamer) TTCCTGGGGGAGTATTGCGGAGGAAGG; test: FAM fluorescence increase, single-site fit; conditions: 100 mM KCl; 50 mM Tris pH 7.5; slow annealing with ATP 0-10 μM; 0.50 μM aptamer
[9] = tested on: ATP Aptamer (DNA, aptamer) CCTGGGGGAGTATTGCGGAGGAAGG; test: label-free ThT fluorescence increase, single-site fit; conditions: 100 mM KCl; 50 mM Tris pH 7.5; ThT 0.5 μM present; slow annealing with ATP; apparent
[10] = tested on: FAM-ATP Aptamer (DNA, aptamer) TTCCTGGGGGAGTATTGCGGAGGAAGG; test: FAM fluorescence increase, single-site fit; conditions: 100 mM KCl; 50 mM Tris pH 7.5; slow annealing with ATP 0-10 μM; 0.50 μM aptamer
[11] = tested on: Quadruplet G (DNA, aptamer) CCTGGGGGGGGGAGTATTGCGGGGAGGGGAAGG; test: label-free ThT fluorescence increase, single-site fit; conditions: 100 mM KCl; 50 mM Tris pH 7.5; ThT 0.5 μM present; slow annealing with ATP; apparent
[12] = tested on: Triplet G (DNA, aptamer) CCTGGGGGGGAGTATTGCGGGAGGGAAGG; test: as above; conditions: 100 mM KCl; 50 mM Tris pH 7.5; ThT 0.5 μM present; slow annealing with ATP; apparent
[13] = tested on: Scrambled Aptamer (DNA, single strand) GTGCGCGAGTGTGAGCGAGAGTGAG; test: label-free ThT fluorescence; conditions: 100 mM KCl; 50 mM Tris pH 7.5; ThT present; slow annealing with ATP
[14] = tested on: FAM-Triplet G (DNA, aptamer) TTCCTGGGGGGGAGTATTGCGGGAGGGAAGG; test: FAM fluorescence increase, single-site fit; conditions: 100 mM KCl; 50 mM Tris pH 7.5; slow annealing with ATP 0-10 μM; 0.50 μM aptamer
[15] = tested on: GAT (DNA, single strand) GATAGCGTCACTCGATCT; test: label-free ThT fluorescence; conditions: 100 mM KCl; 50 mM Tris pH 7.5; ThT present; slow annealing with ATP
[16] = G4:ATP:ThT 1:5:5 mixed, ternary complex with ATP
[17] = 1 mM Tris, G4:ATP 1:5 mixed, also with ThT

| Compound | binding [1] | binding [2] | binding [3, 16] | binding [4, 16] | binding [5] | binding [6, 16] | Kd [7] [µM] | binding [3, 17] | binding [4, 17] | Kd [8] [µM] | Kd [9] [µM] | Kd [10] [µM] | Kd [11] [µM] | binding [6, 17] | Kd [12] [µM] | binding [13] | Kd [14] [µM] | binding [15] |
| --- | --- | --- | --- | --- | --- | --- | --- | --- | --- | --- | --- | --- | --- | --- | --- | --- | --- | --- |
| Cc1ccc2c(c1)sc(-c1ccc(N(C)C)cc1)[n+]2C | yes | yes | yes | yes | yes | yes | – | – | – | – | – | – | – | – | – | – | – | – |
| Nc1ncnc2c1ncn2[C@@H]1O[C@H](COP(=O)(O)OP(=O)(O)OP(=O)(O)O)[C@@H](O)[C@H]1O | – | – | – | – | – | – | 0.042 | yes | yes | 0.62 | 0.83 | 0.15 | 0.17 | yes | 0.071 | no | 0.040 | no |
